In PubChem BioAssay AID248 (DTP/NCI, 2004):
Values joined by “and” are separate entries in the source; they are usually repeats but may differ in a detail not shown here. Identical values can stand only once. Toxic doses and inconclusive results are not listed. No stated cut-off is given here; in the data, active means T/C of 150% or more; inactive means T/C below 125%.

Test system: L1210 leukemia ip in BDF1 mice, survival T/C
Test: NCI In Vivo Anticancer Drug Screen. Data for tumor model L1210 Leukemia (intraperitoneal) in B6D2F1 (BDF1) mice
Details: higher = longer survival
Method in brief: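 Transplanted-tumor mice were given test agent; controls received vehicle only. Survival readings from the two groups were divided (treated over control).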

[1] = endpoint: mean survival time, dose: 50.0 mg/kg/injection, schedule: Q01DX009 (ip), vehicle: saline
[2] = endpoint: mean survival time, dose: 100.0 mg/kg/injection, schedule: Q01DX009 (ip), vehicle: Klucel (hydroxypropylcellulose) (HPC)
[3] = endpoint: mean survival time, dose: 100.0 mg/kg/injection, schedule: Q04DX003 (ip), vehicle: Klucel (hydroxypropylcellulose) (HPC)
[4] = endpoint: mean survival time, dose: 200.0 mg/kg/injection, schedule: Q01DX009 (ip), vehicle: Klucel (hydroxypropylcellulose) (HPC)
[5] = endpoint: mean survival time, dose: 200.0 mg/kg/injection, schedule: Q04DX003 (ip), vehicle: Klucel (hydroxypropylcellulose) (HPC)
[6] = endpoint: mean survival time, dose: 400.0 mg/kg/injection, schedule: Q04DX003 (ip), vehicle: Klucel (hydroxypropylcellulose) (HPC)
[7] = endpoint: mean survival time, dose: 100.0 mg/kg/injection, schedule: Q01DX001 (ip), vehicle: Klucel (hydroxypropylcellulose) (HPC)
[8] = endpoint: mean survival time, dose: 200.0 mg/kg/injection, schedule: Q01DX001 (ip), vehicle: Klucel (hydroxypropylcellulose) (HPC)
[9] = endpoint: mean survival time, dose: 400.0 mg/kg/injection, schedule: Q01DX001 (ip), vehicle: Klucel (hydroxypropylcellulose) (HPC)
[10] = endpoint: mean survival time, dose: 100.0 mg/kg/injection, schedule: Q01DX009 (ip), vehicle: saline with Tween-80
[11] = endpoint: mean survival time, dose: 100.0 mg/kg/injection, schedule: Q04DX003 (ip), vehicle: saline with Tween-80
[12] = endpoint: mean survival time, dose: 200.0 mg/kg/injection, schedule: Q01DX009 (ip), vehicle: saline with Tween-80
[13] = endpoint: mean survival time, dose: 200.0 mg/kg/injection, schedule: Q04DX003 (ip), vehicle: saline with Tween-80
[14] = endpoint: mean survival time, dose: 400.0 mg/kg/injection, schedule: Q01DX009 (ip), vehicle: saline with Tween-80
[15] = endpoint: mean survival time, dose: 400.0 mg/kg/injection, schedule: Q04DX003 (ip), vehicle: saline with Tween-80
[16] = endpoint: mean survival time, dose: 100.0 mg/kg/injection, schedule: Q01DX001 (ip), vehicle: saline with Tween-80
[17] = endpoint: mean survival time, dose: 100.0 mg/kg/injection, schedule: Q01DX001 (ip), vehicle: carboxymethylcellulose (CMC)
[18] = endpoint: mean survival time, dose: 200.0 mg/kg/injection, schedule: Q01DX001 (ip), vehicle: carboxymethylcellulose (CMC)
[19] = endpoint: mean survival time, dose: 400.0 mg/kg/injection, schedule: Q01DX001 (ip), vehicle: carboxymethylcellulose (CMC)
[20] = endpoint: mean survival time, dose: 400.0 mg/kg/injection, schedule: Q01DX009 (ip), vehicle: Klucel (hydroxypropylcellulose) (HPC)

Measured: T/C

c1ccc2cc3cc4cc5ccccc5cc4cc3cc2c1
inactive: [1] 97 % of control | endpoint: mean survival time, dose: 100.0 mg/kg/injection, schedule: Q01DX009 (ip), vehicle: saline 101 % of control | endpoint: mean survival time, dose: 200.0 mg/kg/injection, schedule: Q01DX009 (ip), vehicle: saline 101 % of control

Cc1c(C)c(CC#N)c(C)c(C)c1CC#N
inactive: [2] 86 % of control | [3] 91 % of control | [4] 88 % of control | [5] 88 % of control | [6] 94 % of control

CCCCc1cc([N+](=O)[O-])cc([N+](=O)[O-])c1OCN1C(=O)C2C3CCC(O3)C2C1=O (configuration not stated)
inactive: endpoint: mean survival time, dose: 100.0 mg/kg/injection, schedule: Q04DX002 (ip), vehicle: Klucel (hydroxypropylcellulose) (HPC) 113 % of control | endpoint: mean survival time, dose: 200.0 mg/kg/injection, schedule: Q04DX002 (ip), vehicle: Klucel (hydroxypropylcellulose) (HPC) 98 % of control | endpoint: mean survival time, dose: 400.0 mg/kg/injection, schedule: Q04DX002 (ip), vehicle: Klucel (hydroxypropylcellulose) (HPC) 106 % of control

COC(=O)C(Cc1ccccc1)NC(=O)/C=C/N(CCCl)CCCl (configuration not stated)
inactive: endpoint: mean survival time, dose: 10.0 mg/kg/injection, schedule: Q01DX Z (ip), vehicle: other 97 % of control | endpoint: mean survival time, dose: 20.0 mg/kg/injection, schedule: Q01DX Z (ip), vehicle: other 96 % of control | endpoint: mean survival time, dose: 40.0 mg/kg/injection, schedule: Q01DX Z (ip), vehicle: other 89 % of control | endpoint: mean survival time, dose: 80.0 mg/kg/injection, schedule: Q01DX Z (ip), vehicle: other 102 % of control

CC1=Nc2ccccc2SC(C)(C)C1
inactive: endpoint: mean survival time, dose: 50.0 mg/kg/injection, schedule: Q01DX001 (ip), vehicle: Klucel (hydroxypropylcellulose) (HPC) 98 % of control | [7] 91 % of control | [8] 109 % of control | [9] 98 % of control

COc1ccc(CC(=O)NCCN(CCN(CCO)C(=O)Cc2ccc(OC)cc2)C(=O)Cc2ccc(OC)cc2)cc1
inactive: [10] 95 % of control | [11] 100 % of control | [12] 90 % of control | [13] 102 % of control | [14] 91 % of control | [15] 94 % of control

COc1ccc(CN2CCCN(Cc3ccc(OC)cc3)C2c2ccncc2C)cc1
inactive: endpoint: mean survival time, dose: 100.0 mg/kg/injection, schedule: Q01DX001 (ip), vehicle: acetone 96 % of control | endpoint: mean survival time, dose: 200.0 mg/kg/injection, schedule: Q01DX001 (ip), vehicle: acetone 105 % of control | endpoint: mean survival time, dose: 400.0 mg/kg/injection, schedule: Q01DX001 (ip), vehicle: acetone 96 % of control

COc1ccc(Cl)cc1NC(=O)COc1ccccc1
inactive: [16] 89 % of control | [10] 102 % of control | endpoint: mean survival time, dose: 100.0 mg/kg/injection, schedule: Q04DX002 (ip), vehicle: saline with Tween-80 97 % of control and 98 % of control | endpoint: mean survival time, dose: 200.0 mg/kg/injection, schedule: Q01DX001 (ip), vehicle: saline with Tween-80 92 % of control | [12] 98 % of control and 102 % of control | endpoint: mean survival time, dose: 200.0 mg/kg/injection, schedule: Q04DX002 (ip), vehicle: saline with Tween-80 94 % of control and 97 % of control | endpoint: mean survival time, dose: 400.0 mg/kg/injection, schedule: Q01DX001 (ip), vehicle: saline with Tween-80 101 % of control | [14] 93 % of control and 102 % of control | endpoint: mean survival time, dose: 400.0 mg/kg/injection, schedule: Q04DX002 (ip), vehicle: saline with Tween-80 94 % of control and 101 % of control

O=C(Nc1cccc2ccccc12)O/N=C/c1ccccn1
inactive: endpoint: mean survival time, dose: 50.0 mg/kg/injection, schedule: Q01DX009 (ip), vehicle: saline with Tween-80 94 % of control | [10] 86 % of control and 87 % of control | [11] 87 % of control | [12] 94 % of control | [13] 90 % of control | [14] 107 % of control | [15] 95 % of control

CC(=O)c1cccc(NC2C(N)C(NC(=O)N(C)C)(C(C)O)C(C)(O)C2(O)COC(=O)c2c(C)cccc2O)c1 (configuration not stated)
inactive: endpoint: mean survival time, dose: 0.25 mg/kg/injection, schedule: Q01DX Z (ip), vehicle: saline 98 % of control | endpoint: mean survival time, dose: 0.5 mg/kg/injection, schedule: Q01DX Z (ip), vehicle: saline 98 % of control | endpoint: mean survival time, dose: 0.7 mg/kg/injection, schedule: Q01DX015 (ip), vehicle: carboxymethylcellulose (CMC) 111 % of control | endpoint: mean survival time, dose: 1.0 mg/kg/injection, schedule: Q01DX Z (ip), vehicle: saline 113 % of control | endpoint: mean survival time, dose: 1.5 mg/kg/injection, schedule: Q01DX015 (ip), vehicle: carboxymethylcellulose (CMC) 122 % of control | endpoint: mean survival time, dose: 2.0 mg/kg/injection, schedule: Q01DX Z (ip), vehicle: saline 117 % of control | endpoint: mean survival time, dose: 3.0 mg/kg/injection, schedule: Q01DX001 (ip), vehicle: carboxymethylcellulose (CMC) 104 % of control | endpoint: mean survival time, dose: 3.0 mg/kg/injection, schedule: Q01DX015 (ip), vehicle: carboxymethylcellulose (CMC) 90 % of control | endpoint: mean survival time, dose: 6.0 mg/kg/injection, schedule: Q01DX001 (ip), vehicle: carboxymethylcellulose (CMC) 107 % of control | endpoint: mean survival time, dose: 12.0 mg/kg/injection, schedule: Q01DX001 (ip), vehicle: carboxymethylcellulose (CMC) 107 % of control | endpoint: mean survival time, dose: 25.0 mg/kg/injection, schedule: Q01DX001 (ip), vehicle: carboxymethylcellulose (CMC) 112 % of control | endpoint: mean survival time, dose: 50.0 mg/kg/injection, schedule: Q01DX001 (ip), vehicle: carboxymethylcellulose (CMC) 112 % of control | [17] 114 % of control | endpoint: median survival time, dose: 2.0 mg/kg/injection, schedule: Q04DX003 (ip), vehicle: acid diluted with saline 103 % of control | endpoint: median survival time, dose: 4.0 mg/kg/injection, schedule: Q04DX003 (ip), vehicle: acid diluted with saline 103 % of control | endpoint: median survival time, dose: 8.0 mg/kg/injection, schedule: Q04DX003 (ip), vehicle: acid diluted with saline 103 % of control | endpoint: median survival time, dose: 16.0 mg/kg/injection, schedule: Q04DX003 (ip), vehicle: acid diluted with saline 112 % of control

CC/C(=N\NC(N)=O)C(OC)OC
inactive: [17] 108 % of control | [18] 86 % of control | [19] 92 % of control

O=C(NCCCl)NCC1CCCO1 (configuration not stated)
inactive: endpoint: mean survival time, dose: 50.0 mg/kg/injection, schedule: Q04DX003 (ip), vehicle: Klucel (hydroxypropylcellulose) (HPC) 103 % of control | [3] 103 % of control | [5] 103 % of control | [6] 90 % of control

CN1CCCN(CCOC(c2ccccc2)c2ccccc2)CC1
inactive: endpoint: mean survival time, dose: 55.0 mg/kg/injection, schedule: Q01DX Z (ip), vehicle: methylcellulose (MC) 93 % of control | endpoint: mean survival time, dose: 83.0 mg/kg/injection, schedule: Q01DX Z (ip), vehicle: methylcellulose (MC) 92 % of control

FCCCC1CCCCN1 (configuration not stated)
inactive: endpoint: mean survival time, dose: 12.5 mg/kg/injection, schedule: Q01DX009 (ip), vehicle: saline 98 % of control | endpoint: mean survival time, dose: 25.0 mg/kg/injection, schedule: Q01DX009 (ip), vehicle: saline 102 % of control | [1] 96 % of control and 109 % of control

CC(=O)Nc1ccc(/C(C#N)=C/c2ccc(N(C)CCC#N)cc2)cc1
inactive: [2] 98 % of control | [4] 100 % of control | [20] 96 % of control

NC1CCC(OC(=O)C23CC4CC(CC(C4)C2)C3)CC1 (configuration not stated)
inactive: [16] 94 % of control

O=[N+]([O-])c1ccccc1S(=O)(=O)/C=C/c1ccccc1
inactive: [7] 96 % of control | [2] 93 % of control | [3] 100 % of control | [8] 109 % of control | [4] 100 % of control | [5] 106 % of control | [9] 96 % of control | [20] 94 % of control | [6] 101 % of control

Cc1ccc(NC(=O)c2ccccc2Cl)cc1C
inactive: [10] 90 % of control | [12] 97 % of control | [14] 104 % of control

OC1(c2ccccc2)CC2CC1c1ccccc12 (configuration not stated)
inactive: [17] 111 % of control | [18] 93 % of control | [19] 90 % of control

C[N+](C)(C)/N=C1\CC2CCC1C2 (configuration not stated)
inactive: endpoint: mean survival time, dose: 100.0 mg/kg/injection, schedule: Q01DX001 (ip), vehicle: saline 98 % of control | endpoint: mean survival time, dose: 200.0 mg/kg/injection, schedule: Q01DX001 (ip), vehicle: saline 101 % of control

C=CCC(Cl)(C(=O)OC)C(=O)OC
inactive: [11] 91 % of control | [13] 89 % of control | [15] 94 % of control
